# From patent US5686454A, “Camphorcarbonyl” (Merck & Co., Inc., priority 1996, dated 1997)
# Biological target: T1, uterine OT receptors (Rattus norvegicus, UniProt P70536)
# T1 construct: crude membrane preparation of uteri; from tissue; host or cells: uterus of DES-treated rats, crude membranes
# T1 sequence (P70536 1-388): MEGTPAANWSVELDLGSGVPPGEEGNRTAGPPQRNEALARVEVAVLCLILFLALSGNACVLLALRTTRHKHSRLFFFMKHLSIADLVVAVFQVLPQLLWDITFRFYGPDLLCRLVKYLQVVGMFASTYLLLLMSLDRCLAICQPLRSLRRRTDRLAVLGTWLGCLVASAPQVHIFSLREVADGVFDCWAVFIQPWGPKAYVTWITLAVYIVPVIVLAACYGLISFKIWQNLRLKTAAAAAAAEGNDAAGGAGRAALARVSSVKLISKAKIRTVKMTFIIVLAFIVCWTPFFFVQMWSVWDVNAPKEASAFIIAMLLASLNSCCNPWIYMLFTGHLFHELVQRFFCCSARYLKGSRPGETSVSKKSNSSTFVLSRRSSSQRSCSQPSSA
# Assay: Radioligand binding: competition of [^3 H]oxytocin binding to rat uterine membranes
# Conditions: 1 nM [^3 H]OT, rat uterus membranes, 60 minutes, 22° C., pH 7.4; read-out: IC50
# Text: RADIOGLIGAND BINDING ASSAYS
# The high affinity binding of [^3 H]
row,IC50,Structure (SMILES)
1,1000 nM,"Cc1ccccc1N1CCN(S(=O)(=O)C[C@]23CC[C@H](CC2=O)C3(C)C)CC1 [Example 37, 1-((7,7-Dimethyl-2-oxo-bicyclo(2.2.1)heptan-1-yl)methanesulfonyl)-4-(2-methylphenyl)piperazine]"
2,34 nM,"Cc1ccccc1N1CCN(S(=O)(=O)C[C@]23CC[C@H](C[C@]2(O)C(C)CNC(=O)[C@@H]2CCCN2)C3(C)C)CC1 (stereo partly drawn) [Example 40, 1-((7,7-Dimethyl-2-exo-hydroxy-2-endo-2-(1-(1-prolyl)-amino)propylbicyclo(2.2.1)heptan-1-yl)methanesulfonyl)-4-(2-methylphenyl)piperazine]"
3,1.2 nM,"Cc1ccccc1N1CCN(S(=O)(=O)CC23CCC(CC2NC(=O)[C@@H](N)CCS(C)(=O)=O)C3(C)C)CC1 (stereo partly drawn) [Example 72, 1-((7,7-Dimethyl-2-endo-(2S-amino-4-(methylsulfonyl)-butyramido)bicyclo(2.2.1)heptan-1-yl)methanesulfonyl)-4-(2-methylphenyl)piperazine]"
4,7.7 nM,"Cc1ccccc1N1CCN(S(=O)(=O)CC23CCC(CC2NC(=O)[C@H](CCS(C)(=O)=O)NC(=O)OC(C)(C)C)C3(C)C)CC1 (stereo partly drawn) [Example 71, 1-((7,7-Dimethyl-2-endo-(2S-(tert-butyloxycarbonyl-amino)-4-(methylsulfonyl)-butyramido)-bicyclo(2.2.1)-heptan-1-yl)methanesulfonyl)-4-(2-methylphenyl)-piperazine]"
5,35 nM,"Cc1ccccc1N1CCN(S(=O)(=O)CC23CCC(CC2C(=O)NCCc2c[nH]cn2)C3(C)C)CC1 (stereo not drawn) [Example 61, 1-((7,7-Dimethyl-2-endo-(4-imidazolyl)ethylamino-carbonyl-bicyclo-(2.2.1)heptan-1-yl)methanesulfonyl)-4-(2-methylphenyl)piperazine]"
6,1100 nM,"Cc1ccccc1N1CCN(S(=O)(=O)C[C@]23CC[C@H](CC2=CCCl)C3(C)C)CC1 [Example 49, 1-((7,7-dimethyl-2-(2-chloro)ethylidinebicyclo-(2.2.1)heptan-1-yl)methanesulfonyl)-4-(2-methyl-phenyl)piperazine]"
7,9.2 nM,"Cc1ccccc1N1CCN(S(=O)(=O)CC23CCC(CC2N(C)C(=O)[C@@H](N)CCS(C)(=O)=O)C3(C)C)CC1 (stereo partly drawn) [Example 77, 1-((7,7-dimethyl-2-endo-methyl(2S-amino-4-(methylsulfonyl)butanoyl)amino-bicyclo(2.2.1)heptan-1-yl)methanesulfonyl)-4-(2-methylphenyl)-piperazine]"
8,8 nM,"Cc1ccccc1N1CCN(S(=O)(=O)C[C@]23CC[C@H](C[C@]2(O)C(C)CNC(=O)Cc2c[nH]cn2)C3(C)C)CC1 (stereo partly drawn) [Example 43, 1-((7,7-Dimethyl-2-exo-hydroxy-2-endo-2-(1-(4(5)-imidazolylacetyl)amino)propyl-bicyclo(2.2.1)heptan-1-yl)methanesulfonyl)-4-(2-methylphenyl)piperazine]"
9,180 nM,Cc1ccccc1N1CCN(S(=O)(=O)C[C@]23CC[C@H](C[C@]2(O)C(C)CN)C3(C)C)CC1 (stereo partly drawn) [Example 39]
10,26 nM,Cc1ccccc1N1CCN(S(=O)(=O)CC23CCC(CC2NC(=O)Cc2c[nH]cn2)C3(C)C)CC1 (stereo not drawn) [Example 79]

# Further lines, the compound ahead of its results:
row,Structure (SMILES),IC50
1,"Cc1ccccc1N1CCN(S(=O)(=O)CC23CCC(CC2N(C)C(=O)OCc2ccccc2)C3(C)C)CC1 (stereo not drawn) [Example 76, 1-((7,7-Dimethyl-2-endo-methyl(benzyloxy-carbonyl)amino-bicyclo(2.2.1)-heptan-1-yl)methanesulfonyl)4-(2-methylphenyl)piperazine]",6.3 nM
2,"Cc1ccccc1N1CCN(C(=O)C2C3CCC(C)(C2NC(=O)Cc2c[nH]cn2)C3(C)C)CC1 (stereo not drawn) [Example 13, 1-(2-Methylphenyl)-4-[(4,7,7-trimethyl-3-(2-(4-imidazolyl))acetylaminobicyclo[2.21]hept-2-yl)carbonyl]-piperazine]",33.3 nM
3,"Cc1ccccc1N1CCN(S(=O)(=O)C[C@]23CC[C@H](C[C@]2(O)C(C)CNC(=O)[C@@H]2CCCN2CCCC(=O)O)C3(C)C)CC1 (stereo partly drawn) [Example 42, 1-((7,7-Dimethyl-2-exo-hydroxy-2-endo-2-(1-(1-N-(3-carboxypropyl)prolyl)amino)propyl-bicyclo(2.2.1)heptan-1-yl)methanesulfonyl)-4-(2-methylphenyl) piperazine]",10 nM
4,"Cc1ccccc1N1CCN(C(=O)C2C3CCC(C)(C2NC(=O)C(NC(=O)OC(C)(C)C)C(C)O)C3(C)C)CC1 (stereo not drawn) [Example 19, 1-(2-methylphenyl)-4-[(4,7,7-trimethyl-3-(2-(t-butoxycarbonyl)amino-3-hydroxy)butyrylaminobicyclo[2.2.1]hept-2-yl)carbonyl]-piperazine]",160 nM
5,"Cc1ccccc1N1CCN(S(=O)(=O)CC23CCC(CC2O)C3(C)C)C(C)C1 (stereo not drawn) [Example 68, 1-((7,7-Dimethyl-2-exo-hydroxy-bicyclo(2.2.1)heptan-1-yl)methanesulfonyl)-4-(2-methylphenyl)-2-methyl-piperazine]",460 nM
6,"CCOC(=O)CN1CCCC(C(=O)NCC(C)C2(O)CC3CCC2(CS(=O)(=O)N2CCN(c4ccccc4C)CC2)C3(C)C)C1 (stereo not drawn) [Example 86, 1-((7,7-Dimethyl-2-exo-hydroxy-2-endo-2-(1-(3-(1-ethoxycarbonylmethyl)piperidinylcar-bonyl)amino)propyl-bicyclo(2.2.1)heptan-1-yl)methanesulfonyl)-4-(2-methylphenyl)piperazine]",38 nM
7,"Cc1ccccc1N1CCN(C(=O)C2C3CCC(C)(C2NC(=O)[C@@H]2CCCN2)C3(C)C)CC1 (stereo partly drawn) [Example 15, 1-(2-methylphenyl)-4-[(4,7,7-trimethyl-3-prolylaminobicyclo[2.2.1]hept-2-yl)carbonyl]-piperazine]",60 nM
8,COC(=O)CCN1CCCC(C(=O)NCC(C)C2(O)CC3CCC2(CS(=O)(=O)N2CCN(c4ccccc4C)CC2)C3(C)C)C1 (stereo not drawn) [Example 84],25 nM
9,"Cc1ccccc1N1CCN(C(=O)C2C3CCC(C)(C2NC(=O)C(CCS(C)(=O)=O)NC(=O)OC(C)(C)C)C3(C)C)CC1 (stereo not drawn) [Example 11, 1-(2-methylphenyl)-4-[(4,7,7-trimethyl-3-endo-(4-methylsulfonyl-2-t-butoxycarbonylamino)butanoylaminobicyclo[2.2.1]hept-2-endo-yl)carbonyl]-piperazine]",1100 nM
10,"Cc1ccccc1N1CCN(C(=O)C2C3CCC(C)(C2NC(=O)C(N)C(C)O)C3(C)C)CC1 (stereo not drawn) [Example 20, 1-(2-methylphenyl)-4-[(4,7,7-trimethyl-3-(2-amino-3-hydroxy)butyrylaminobicyclo[2.2.1]hept-2-yl)carbonyl]-piperazine]",3.6 nM
11,Cc1ccccc1N1CCN(S(=O)(=O)CC23CCC(CC2(O)C(C)CNC(=O)C2CCNCC2)C3(C)C)CC1 (stereo not drawn) [Example 90],30 nM

# Same assay, conditions: read-out: % inhibition at 100 nM
row,inhibition at 0.1 µM,Structure (SMILES)
1,34%,"Cc1ccccc1N1CCN(S(=O)(=O)CC23CCC(CC2C(=O)O)C3(C)C)CC1 (stereo not drawn) [Example 60, 1-((7,7-Dimethyl-2-endo-carboxy-bicyclo(2.2.1)heptan-1-yl)methanesulfonyl)-4-(2-methylphenyl)piperazine]"
2,35%,"Cc1ccccc1N1CCN(S(=O)(=O)CC23CCC(CC2(O)C(C)CNCc2ccncc2)C3(C)C)CC1 (stereo not drawn) [Example 63, 1-((7,7-Dimethyl-2-exo-hydroxy-2-endo-2-(1-(4-pyridinyl)methylamino)-propyl-bicyclo(2.2.1)heptan-1-yl)methanesulfonyl)-4-(2-methylphenyl)-piperazine]"
3,36%,"Cc1ccccc1N1CCN(S(=O)(=O)C[C@]23CC[C@H](CC2=CCN)C3(C)C)CC1 [Example 52, 1-((7,7-dimethyl-2-(2-amino)ethylidine-bicyclo-(2.2.1)heptan-1-yl)methanesulfonyl)-4-(2-methyl-phenyl)piperazine]"
4,91%,"Cc1ccccc1N1CCN(S(=O)(=O)CC23CCC(CC2N)C3(C)C)CC1 (stereo not drawn) [Example 70, 1-((7,7-Dimethyl-2-endo-amino-bicyclo(2.2.1)heptan-1-yl)methanesulfonyl)-4-(2-methylphenyl)-piperazine]"

# Same assay, conditions: read-out: % inhibition at 1000 nM
row,inhibition at 1 µM,Structure (SMILES)
1,75%,"Cc1ccccc1N1CCN(S(=O)(=O)C[C@]23CC[C@H](CC2=CCNC(=O)Cc2c[nH]cn2)C3(C)C)CC1 [Example 53, 1-((7,7-dimethyl-2-(2-(4(5)-imidazolylacetyl)amino)-ethylidine-bicyclo(2.2.1)heptan-1-yl)methane-sulfonyl)-4-(2-methylphenyl)piperazine]"
2,31%,"Cc1ccccc1N1CCN(S(=O)(=O)CC23CCC(CC24CO4)C3(C)C)CC1 (single isomer, unassigned) [Example 54, 1-((7,7-Dimethyl-2-spiro-epoxy-bicyclo(2.2.1)heptan-1-yl)methanesulfonyl)-4-(2-methylphenyl)piperazine]"
3,35%,"Cc1ccccc1N1CCN(S(=O)(=O)CC23CCC(CC2NC(=O)OCc2ccccc2)C3(C)C)CC1 (stereo not drawn) [Example 75, 1-((7,7-Dimethyl-2-endo-benzyloxycarbonylamino-bicyclo(2.2.1)heptan-1-yl)methanesulfonyl)-4-(2-methyl-phenyl)-piperazine]"

# Same assay, conditions: read-out: % inhibition at 10,000 nM
row,inhibition at 10 µM,Structure (SMILES)
1,5%,"Cc1ccccc1N1CCN(S(=O)(=O)CC23CCC(CC2=O)C3(C)C)CC1=O (stereo not drawn) [Example 66, 1-((7,7-Dimethyl-2-oxo-bicyclo(2.2.1)heptan-1-yl)methanesulfonyl)-4-(2-methylphenyl)-3-piperazinone]"
2,16%,"CC(=O)NC(CC=C1CC2CCC1(CS(=O)(=O)N1CCN(c3ccccc3C)CC1)C2(C)C)C(=O)O (stereo not drawn) [Example 65, 1-((7,7-Dimethyl-2-(3-acetamido-3-carboxy)propylidine-bicyclo(2.2.1)heptan-1-1 methanesulfonyl)-4-2-methylphenyl)piperazine]"
